From paper PMC3565011 (Xenobiotica; the fate of foreign compounds in biological …, 2011)

Experiments:
CYP3A4 [1] = target: CYP3A4 (Homo sapiens, UniProt P08684); assay: Midazolam 1'-hydroxylation; format: in vitro ADME; settings: for % inhibition (10 µM) of CYP3A4, class / % inhibition (10 µM) of CYP3A4 / IC50: midazolam hydroxylation; for % inhibition (10 µM) of CYP3A4: average of triplicates ± S.D.; for IC50: read-out: IC50 CYP3A4
CYP2D6 = CYP2D6 (Homo sapiens, UniProt P10635); assay: Dextromethorphan demethylation; format: in vitro ADME
CYP3A4 [2] = settings: cited from earlier work
[3] = test system: tamoxifen 4-hydroxylation (4-OH TAM formation) by human liver microsomes; assay: in vitro; settings: female, pH 7.4
[4] = test system: tamoxifen N-demethylation (N-desmethyl TAM formation) by human liver microsomes; assay: in vitro; settings: female, pH 7.4
[5] = test system: tamoxifen α-hydroxylation (α-OH TAM formation) by human liver microsomes; assay: in vitro; settings: female, pH 7.4

CYP2D6, sequence (P10635 whole entry): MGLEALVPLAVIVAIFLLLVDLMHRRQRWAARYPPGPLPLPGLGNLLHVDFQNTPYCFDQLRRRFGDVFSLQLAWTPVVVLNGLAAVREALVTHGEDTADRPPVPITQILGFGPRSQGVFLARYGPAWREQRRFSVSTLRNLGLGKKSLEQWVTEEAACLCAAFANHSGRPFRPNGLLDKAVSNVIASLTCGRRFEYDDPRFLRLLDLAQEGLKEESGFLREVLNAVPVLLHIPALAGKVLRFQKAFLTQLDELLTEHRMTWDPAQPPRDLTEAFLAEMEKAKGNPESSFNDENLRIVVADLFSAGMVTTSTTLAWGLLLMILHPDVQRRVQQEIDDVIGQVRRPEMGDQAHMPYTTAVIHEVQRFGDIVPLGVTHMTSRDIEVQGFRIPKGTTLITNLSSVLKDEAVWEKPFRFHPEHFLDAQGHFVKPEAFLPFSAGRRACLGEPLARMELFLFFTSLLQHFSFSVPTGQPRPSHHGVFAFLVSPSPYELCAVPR
CYP3A4 (Homo sapiens, UniProt P08684), sequence (P08684 whole entry): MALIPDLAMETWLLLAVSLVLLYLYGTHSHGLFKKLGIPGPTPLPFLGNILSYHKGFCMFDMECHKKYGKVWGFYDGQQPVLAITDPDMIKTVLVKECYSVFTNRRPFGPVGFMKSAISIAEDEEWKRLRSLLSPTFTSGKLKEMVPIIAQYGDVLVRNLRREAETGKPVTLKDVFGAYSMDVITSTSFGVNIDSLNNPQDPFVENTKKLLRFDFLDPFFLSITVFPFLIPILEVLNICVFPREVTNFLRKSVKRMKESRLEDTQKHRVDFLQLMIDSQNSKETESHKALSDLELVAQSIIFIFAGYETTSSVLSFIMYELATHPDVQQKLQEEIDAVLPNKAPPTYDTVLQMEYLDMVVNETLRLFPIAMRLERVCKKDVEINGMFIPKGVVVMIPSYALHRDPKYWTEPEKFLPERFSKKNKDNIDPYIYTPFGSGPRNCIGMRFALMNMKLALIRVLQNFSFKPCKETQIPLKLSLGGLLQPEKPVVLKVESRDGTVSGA

With `CC(=O)O[C@@H]1C[C@@]23C[C@@]24CC[C@H](O[C@@H]2OC[C@@H](O)[C@H](O)[C@H]2O)C(C)(C)[C@@H]4CC[C@H]3[C@]2(C)C[C@@H]3O[C@]4(C[C@@H](C)[C@@H]3[C@@]12C)OC[C@@]1(C)O[C@@H]41` [Compound 4, 26-deoxyactein] the “activity against CYP3A4 (in words)” value (CYP3A4 [1]) was “inactive”, the “% inhibition (10 µM) of CYP3A4, class” value (CYP3A4 [1]) was “N/A (N/A, Not active = < 50% inhibition at 10 µM)” and the “activity against CYP2D6 (in words)” value (CYP2D6) was “inactive”.

With `CC(=O)O[C@@H]1C[C@@]23C[C@@]24CC[C@H](O[C@@H]2OC[C@@H](O)[C@H](O)[C@H]2O)C(C)(C)[C@@H]4CC[C@H]3[C@]2(C)C[C@@H]3O[C@]4(C[C@@H](C)[C@@H]3[C@@]12C)O[C@H](O)[C@@]1(C)O[C@@H]41` [Compound 11, Actein (R,S)] the “activity against CYP3A4 (in words)” value (CYP3A4 [1]) was “inactive”, the “% inhibition (10 µM) of CYP3A4, class” value (CYP3A4 [1]) was “N/A (N/A, Not active = < 50% inhibition at 10 µM)” and the “activity against CYP2D6 (in words)” value (CYP2D6) was “inactive”.

With `CC(=O)O[C@@H]1C[C@@]23C[C@@]24CC[C@H](O[C@@H]2OC[C@@H](O)[C@H](O)[C@H]2O)C(C)(C)[C@@H]4CC[C@H]3[C@]2(C)C[C@@H]3O[C@]4(C[C@@H](C)[C@@H]3[C@@]12C)OC(=O)[C@]1(C)O[C@H]41` [Compound 5, Cimiracemoside P] the “% inhibition (10 µM) of CYP3A4, class” value (CYP3A4 [1]) was “N/A (N/A, Not active = < 50% inhibition at 10 µM)”.

In the case of “1-α-hydroxycimigenol-3-O- α-L-arabinopyranoside [Compound 19]”, the “% inhibition (10 µM) of CYP3A4, class” value (CYP3A4 [1]) is reported as “N/A (N/A, Not active = < 50% inhibition at 10 µM)”.

With `CC(=O)O[C@@H]1CO[C@@H](O[C@H]2CC[C@]34C[C@]35C[C@@H](OC(C)=O)[C@]3(C)[C@H]6[C@H](C)C[C@]7(OC(O)[C@]8(C)O[C@H]78)O[C@H]6C[C@@]3(C)[C@@H]5CC[C@H]4C2(C)C)[C@H](O)[C@H]1O` (stereo partly drawn) [Compound 15, Cimiracemoside O] the “% inhibition (10 µM) of CYP3A4” value (CYP3A4 [1]) was 74.8±0.1% and the IC50 (CYP3A4 [1]) was 5.1 ± 0.4 µM.

For “7-β-hydroxycimigenol aglycone [Compound 20]”, the “% inhibition (10 µM) of CYP3A4” value (CYP3A4 [1]) was 64.9±1.1%.

For `C=C(C)[C@@H]1O[C@@]23O[C@@H]1C[C@@H](C)[C@@H]2[C@@]1(C)[C@H](OC(C)=O)C[C@@]24C[C@@]25CC[C@H](O[C@@H]2OC[C@H](O)[C@H](O)[C@H]2O)C(C)(C)[C@@H]5CC[C@H]4[C@]1(C)[C@H]3O` [Compound 6, Cimiracemoside J], the “% inhibition (10 µM) of CYP3A4, class” value (CYP3A4 [1]) was “N/A (N/A, Not active = < 50% inhibition at 10 µM)”.

In the case of “25-O-acetyl-7-β-hydroxycimigenol-3-O-β-xylopyranoside [Compound 22]”, the “% inhibition (10 µM) of CYP3A4” value (CYP3A4 [1]) is reported as 61.8±0.2%.

With `C=C(C)[C@@H]1O[C@@]23O[C@@H]1C[C@@H](C)[C@@H]2[C@@]1(C)[C@H](OC(C)=O)C[C@@]24C[C@@]25CC[C@H](O[C@@H]2OC[C@@H](O)[C@H](O)[C@H]2O)C(C)(C)[C@@H]5CC[C@H]4[C@]1(C)[C@H]3O` [Compound 7, Cimiracemoside K] the “% inhibition (10 µM) of CYP3A4” value (CYP3A4 [1]) was 85.2±0.3% and the IC50 (CYP3A4 [1]) was 3.8 ± 0.5 µM.

For “23-O-acetylshengmanol-3-β-D-xylopyranoside [Compound 12]”, the “CYP3A4 inhibition (in words)” value (CYP3A4 [2]) is given as “weak inhibitor”.

For “25-O-acetylcimigenol-3-O-β-xylopyranoside [Compound 8]”, the “% inhibition (10 µM) of CYP3A4, class” value (CYP3A4 [1]) was “N/A (N/A, Not active = < 50% inhibition at 10 µM)”.

With `C[C@H](CC(=O)[C@@H]1OC1(C)C)[C@H]1C(=O)C[C@@]2(C)C3=CC[C@H]4C(C)(C)[C@@H](O[C@@H]5OC[C@@H](O)[C@H](O)[C@H]5O)CC[C@@]45C[C@@]35[C@@H](O)C[C@]12C` [Compound 17, Cimicifugoside H-1] the “% inhibition (10 µM) of CYP3A4, class” value (CYP3A4 [1]) was “N/A (N/A, Not active = < 50% inhibition at 10 µM)”.

In the case of `CC(=O)O[C@H]1[C@H](O[C@H]2CC[C@]34C[C@]35C[C@@H](OC(C)=O)[C@]3(C)[C@H]6[C@H](C)C[C@@]7(O[C@H]6C[C@@]3(C)[C@@H]5CC[C@H]4C2(C)C)O[C@H](O)[C@@]2(C)O[C@@H]72)OC[C@@H](O)[C@@H]1O` [Compound 14, 2’-O-acetyl-Actein], the “% inhibition (10 µM) of CYP3A4, class” value (CYP3A4 [1]) is reported as “N/A (N/A, Not active = < 50% inhibition at 10 µM)”.

With “25-anhydrocimigenol-3-O-β-xylopyranoside [Compound 3]” the “% inhibition (10 µM) of CYP3A4, class” value (CYP3A4 [1]) was “N/A (N/A, Not active = < 50% inhibition at 10 µM)”.

In the case of `CC(=O)O[C@@H]1C[C@@]23C[C@@]24CC[C@H](O[C@@H]2OC[C@H](O)[C@H](O)[C@H]2O)C(C)(C)[C@@H]4CC[C@H]3[C@]2(C)C[C@@H]3O[C@]4(C[C@@H](C)[C@@H]3[C@@]12C)OC[C@]1(C)O[C@H]41` [Compound 13, Cimiracemoside N], the “% inhibition (10 µM) of CYP3A4, class” value (CYP3A4 [1]) is reported as “N/A (N/A, Not active = < 50% inhibition at 10 µM)”.

With “1-α-hydroxycimigenol-3-O-β-D-xylopyranoside [Compound 21]” the “% inhibition (10 µM) of CYP3A4, class” value (CYP3A4 [1]) was “N/A (N/A, Not active = < 50% inhibition at 10 µM)”.

In the case of “25-anhydrocimigenol-3-O-β-arabinopyranoside [Compound 10]”, the “% inhibition (10 µM) of CYP3A4, class” value (CYP3A4 [1]) is reported as “N/A (N/A, Not active = < 50% inhibition at 10 µM)”.

For `CN1CCc2cc3c(cc2C(=O)Cc2ccc4c(c2C1)OCO4)OCO3` [Protopine, protopine], the Ki (CYP2D6) was 0.078 µM.

With `CC(=O)O[C@@H]1C[C@@]23C[C@@]24CC[C@H](O[C@@H]2OC[C@@H](O)[C@H](O)[C@H]2O)C(C)(C)[C@@H]4CC[C@H]3[C@]2(C)C[C@@H]3O[C@@]4(C[C@@H](C)[C@@H]3[C@@]12C)OC[C@@]1(C)O[C@@H]41` [Compound 1, 23-epi-26-deoxyactein] the “activity against CYP3A4 (in words)” value (CYP3A4 [1]) was “inactive” and the “activity against CYP2D6 (in words)” value (CYP2D6) was “inactive”.

With `COc1ccc2c(c1OC)CN(C)CCc1cc3c(cc1C(=O)C2)OCO3` [Allocryptopine, allocryptopine] the inhibition at 20 min, 10 µM [3] was 57.9 ± 4.3%, the inhibition at 20 min, 10 µM [4] was 16.8 ± 2.8% and the inhibition at 20 min, 10 µM [5] was < 10%.

With `CC(=O)O[C@H]1CO[C@@H](O[C@H]2CC[C@]34C[C@]35CC[C@]3(C)[C@@H]([C@H](C)C[C@@H](OC(C)=O)[C@@H]6OC6(C)C)C(=O)[C@H](O)[C@@]3(C)[C@@H]5CC[C@H]4C2(C)C)[C@H](O)[C@H]1O` [Compound 16, Cimiracemoside L] the “% inhibition (10 µM) of CYP3A4” value (CYP3A4 [1]) was 94.2±0.3% and the IC50 (CYP3A4 [1]) was 2.4 ± 0.2 µM.

With “25-O-acetylcimigenol-3-O-α-arabinopyranoside [Compound 9]” the “% inhibition (10 µM) of CYP3A4, class” value (CYP3A4 [1]) was “N/A (N/A, Not active = < 50% inhibition at 10 µM)”.
